TGI data for ten compounds are collected here from PubChem BioAssay (NCI).

Test systems include SN12C renal; HCT-116 colon; EKVX NSCLC; HOP-62 NSCLC; SF-539 CNS; CCRF-CEM leukemia; RXF 393 renal; KM12 colon; MALME-3M melanoma; HL-60(TB) leukemia; U251 CNS; OVCAR-4 ovarian; OVCAR-8 ovarian; TK-10 renal; A498 renal; NCI/ADR-RES ovarian; BT-549 breast.
Experiment in all cases: NCI anticancer screen, dose series, 48 h

Structures are written as SMILES.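 These data come from cells grown in 96-well plates and exposed to compound for 48 hours at five concentrations. Definition used: TGI = concentration required for complete inhibition of growth.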 Where a SMILES comes first, the peptide text is derived from it. [ ]: non-standard residue; d: D form. The star is where a group is joined. ξ: configuration not given here. NMeF = CN[C@@H](Cc1ccccc1)C(=O)O; ξNMeV = CNC(C(=O)O)C(C)C; Boc = CC(C)(C)OC(=O)*; OBn = c1ccc(CO*)cc1

Consider `COc1cc(C(C)c2cc3c(cc2OCCCCOc2cc4c(cc2C(C)c2cc(OC)c(OC)c(OC)c2)OCO4)OCO3)cc(OC)c1OC` (configuration not stated), for which the TGI in the test with SN12C renal is greater than 100 µM; with HCT-116 colon, greater than 100 µM; in the test with EKVX NSCLC, greater than 100 µM; in the test with HOP-62 NSCLC, greater than 100 µM; with SF-539 CNS, 55.4 µM; in the test with CCRF-CEM leukemia, greater than 100 µM. Besides, the TGI in the test with RXF 393 renal is 73.3 µM; in the test with KM12 colon it was greater than 100 µM; with MALME-3M melanoma, greater than 100 µM; in the test with HL-60(TB) leukemia it was greater than 100 µM; with U251 CNS, greater than 100 µM; in the test with OVCAR-4 ovarian, greater than 100 µM. The TGI in the test on OVCAR-8 ovarian and in the test with TK-10 renal was greater than 100 µM each time.
As for `CC(C)C(C(=O)N1CCC[C@@H]1C(=O)OCc1ccccc1)N(C)C(=O)C(C(C)C)N(C)C(=O)[C@H](Cc1ccccc1)N(C)C(=O)[C@H](NC(=O)OC(C)(C)C)C(C)C` (some centres not stated) (Boc-[dV][NMeF][ξNMeV][ξNMeV][dP]-OBn), the TGI with SN12C renal, with HCT-116 colon, in the test on EKVX NSCLC, in the test with HOP-62 NSCLC, in the test with SF-539 CNS and in the test with CCRF-CEM leukemia was greater than 100 µM throughout. For the same compound, the TGI with RXF 393 renal, in the test on KM12 colon, with MALME-3M melanoma, in the test on HL-60(TB) leukemia, with U251 CNS and in the test on OVCAR-4 ovarian was greater than 100 µM each time. In addition, the TGI in the test with A498 renal, in the test with OVCAR-8 ovarian and with TK-10 renal was greater than 100 µM in each case.
`COc1ccc(C2ON(c3ccccn3)CC=C2C)cc1` (configuration not stated): the TGI with SN12C renal, in the test with EKVX NSCLC, in the test with HOP-62 NSCLC, in the test with SF-539 CNS, with CCRF-CEM leukemia and in the test on RXF 393 renal was greater than 100 µM throughout. In addition, the TGI with KM12 colon, in the test with MALME-3M melanoma, in the test with HL-60(TB) leukemia, in the test with U251 CNS, with OVCAR-4 ovarian and with OVCAR-8 ovarian was greater than 100 µM in each case.
With `COC(=O)C1C2C=CC(C2)N1S(=O)(=O)c1ccccc1` (configuration not stated), the TGI in the test with SN12C renal, in the test with HCT-116 colon, in the test with HOP-62 NSCLC, with SF-539 CNS, with NCI/ADR-RES ovarian and in the test on RXF 393 renal was greater than 100 µM each time. Also, the TGI in the test on KM12 colon, with MALME-3M melanoma, in the test with U251 CNS, with OVCAR-4 ovarian, with A498 renal and with OVCAR-8 ovarian was greater than 100 µM throughout. Further, the TGI in the test on TK-10 renal was greater than 100 µM.
For the compound `Cc1ccc(CS(=O)(=O)C/N=c2\sc3ccccc3nc2/C=C(\O)c2ccc(Cl)cc2)cc1`, the TGI in the test with SN12C renal, in the test on HCT-116 colon, with HOP-62 NSCLC, in the test on SF-539 CNS, in the test on NCI/ADR-RES ovarian and in the test with KM12 colon was greater than 10 µM each time. Further, the TGI in the test on MALME-3M melanoma, with U251 CNS, in the test with OVCAR-4 ovarian, with BT-549 breast, in the test on OVCAR-8 ovarian and in the test with TK-10 renal was greater than 10 µM each time.
`C[C@@H](NC(=O)OC1C=CC2(CC1)C(=O)N(C)c1ccccc12)c1cccc2ccccc12` (some centres not stated): the TGI with SN12C renal, in the test with HCT-116 colon, with EKVX NSCLC, in the test on HOP-62 NSCLC, in the test with CCRF-CEM leukemia and in the test on NCI/ADR-RES ovarian was greater than 25 µM each time. Also, the TGI was greater than 25 µM in the test with KM12 colon; 14.7 µM in the test on HL-60(TB) leukemia; greater than 25 µM with U251 CNS; greater than 25 µM in the test on OVCAR-4 ovarian; greater than 25 µM with A498 renal; greater than 25 µM with OVCAR-8 ovarian. In the test on TK-10 renal, this compound registered a TGI greater than 25 µM.
As for `O=C1C2CCC(C2)C12CC1(c3ccccc3)C(=O)c3ccccc3N1O2` (configuration not stated), the TGI in the test on SN12C renal, in the test with HCT-116 colon, in the test with EKVX NSCLC, with HOP-62 NSCLC, in the test on SF-539 CNS and with CCRF-CEM leukemia was greater than 100 µM throughout. Moreover, the TGI in the test on RXF 393 renal, in the test with MALME-3M melanoma, with HL-60(TB) leukemia, with U251 CNS, in the test with OVCAR-4 ovarian and in the test with A498 renal was greater than 100 µM each time. In the test on OVCAR-8 ovarian, the TGI was greater than 100 µM.
For the compound `CC12CC[C@H](O)C(C)(C)[C@H]1CC[C@](C)(O)C2COc1ccc2ccc(=O)oc2c1` (some centres not stated), the TGI with SN12C renal, with HCT-116 colon, in the test on EKVX NSCLC, in the test on HOP-62 NSCLC, in the test with SF-539 CNS and with CCRF-CEM leukemia was greater than 100 µM throughout. The TGI in the test on RXF 393 renal, in the test on KM12 colon, in the test on MALME-3M melanoma, in the test with HL-60(TB) leukemia, in the test with U251 CNS and in the test on OVCAR-4 ovarian was greater than 100 µM throughout. Further, the TGI with A498 renal, with OVCAR-8 ovarian and in the test with TK-10 renal was greater than 100 µM throughout.
Regarding `CC(C)c1cccc(C(C)C)c1NC(=O)C(=O)C(C(=O)c1ccc2ccccc2c1)C1OC(=O)c2ccccc21` (configuration not stated), the TGI in the test on SN12C renal, in the test with HCT-116 colon, in the test on EKVX NSCLC, in the test with HOP-62 NSCLC, in the test on SF-539 CNS and in the test with CCRF-CEM leukemia was greater than 100 µM each time. Moreover, the TGI with RXF 393 renal, with KM12 colon, in the test on MALME-3M melanoma, in the test on U251 CNS, in the test with OVCAR-4 ovarian and in the test with A498 renal was greater than 100 µM throughout.
With `CC(=O)OC1CC2(c3ccccc3)C(=O)c3ccccc3N2O1` (configuration not stated), the TGI in the test with SN12C renal, in the test on HCT-116 colon, with EKVX NSCLC, in the test with HOP-62 NSCLC, in the test on SF-539 CNS and in the test on CCRF-CEM leukemia was greater than 100 µM throughout. Moreover, the TGI with RXF 393 renal, with MALME-3M melanoma, in the test with HL-60(TB) leukemia, in the test on U251 CNS, in the test on OVCAR-4 ovarian and in the test on A498 renal was greater than 100 µM in each case. This compound came in with a TGI with OVCAR-8 ovarian greater than 100 µM.
